The values below come from patent US20100216661A1, “Diagnostic Assay” (priority 2007, published 2010).

In assay [1] the test system is anti-RhE monoclonal antibody E0002. The assay can be described thus: SPOTs membrane hybridisation with anti-RhE monoclonal E0002. In kind it is binding, Human. The conditions noted are these: FIG. 9; 36 RhE peptide mimotopes; CPep75 (Spot 37), CPep76 (Spot 38) negative controls. The protocol:
(§1) The peptide mimotopes were synthesised by the SPOT method (Frank; 1992) using F-moc chemistry. The peptides were anchored to an amino-PEG derivatised cellulose membrane (Intavis AG) and synthesised as discrete spots. Synthesis was by stepwise elongation of the peptide chain from C-terminus to the N-terminus, by manual pipetting of the respective amino acids, according to the Sigma Genosys protocol. Incubation times were modified when using Intavis AG membranes. After addition of the final amino acid, the terminal residues and side chains of the peptides were deprotected and the membrane was washed with methanol; air dried and then stored at −20° C. prior to use.
(§2) A membrane was placed in a 50 ml Falcon tube and blocked overnight at 4° C. with gentle agitation in TBS/0.25% Tween 20/5% skimmed milk powder. A 2 μg/ml dilution of the primary (1°) antibody (monoclonal or polyclonal) was prepared in TBS/0.25% Tween20/5% skimmed milk powder before incubation with the membrane for 1 hour at room temperature on a spiral rotor. Following 4 washes, each for 5 minutes with 20 ml of TBS/0.25% Tween20, the membrane was incubated for 1 hour at room temperature with a 1/5000 dilution of the secondary (2°) antibody, prepared in TBS/0.25% Tween20/5% skimmed milk powder. Peroxidase labelled rabbit anti-mouse IgG (Sigma) was used for the detection of the murine anti-Fy^a (LM487) and anti-Fy^b (LM447) 1° antibodies and peroxidase labelled goat anti-human IgG (Pharmacia) for the detection of the human 1° antibodies. Following 4 washes, each for 5 minutes with 20 ml of TBS/0.25% Tween20, the membrane was blotted to remove excess fluid. Bound antibody was detected by chemiluminescence. ECL detection reagents (Amersham Biosciences) were mixed and overlaid on the membrane for 2 minutes. The chemiluminescent substrate was removed and the membrane blotted to remove excess fluid. Positive spots were visualised following exposure to Hyperfilm ECL (Amersham Biosciences) for a series of short incubation times (5 seconds to 10 minutes).
The RhD, RhE and Rhe peptide mimotopes (see Tables 4 & 5) were synthesised by SPOTs and hybridisation of the membranes was undertaken with the appropriate antibodies (Table 1). FIGS. 7-10 show examples of peptide mimotopes reacting specifically with the antibody originally used in their selection.

Assay [2] concerns anti-RhE monoclonal antibody E0002 (NaTH110-1D6). Kind of assay: Biopanning of phage-peptide libraries with anti-RhE E0002. The assay is classed as binding, Human. The conditions noted are these: IgM antibody. An excerpt: (§3) Three different phage libraries from New England Biolabs. (Ph.D. 7 and Ph.D. 12 displaying linear 7- and 12-mer peptides, respectively and Ph.D. C7C displaying 7-mer peptides constrained by a disulphide bridge at their termini) and a linear 15mer library (kindly provided by Prof. George P. Smith, University of Missouri) were used in biopanning experiments with 10 different monoclonal antibodies and a polyclonal preparation (Table 1).
For each target antibody/library combination, a separate well of a 96-well Immulon 4 flat-bottomed ELISA plate (Thermo Labsystems) was coated with 5 μg of antibody in 150 μl ELISA coating buffer (15 mM Na2CO3, 35 mM NaHCO3, pH9.6). Plates were sealed and incubated at 4° C. overnight. Unbound antibody was discarded and 350 μl of blocking buffer (0.1M NaHCO3/3% skimmed milk powder) was added to each well. Plates were sealed and incubated for 1 hour at 4° C. The blocking buffer was removed and the wells were washed six times with 300 μl TBS/0.1% Tween 20. Approximately 2×10^11 plaque forming units (pfu) in 100 μl TBS/0.1% Tween 20 were added to each well and the plates were incubated at room temperature for 1 hour. Wells were washed ten times with 300 μl TBS/0.1% Tween 20. Bound phage were eluted by incubation with 100 μl of 0.2M glycine-HCl/BSA, pH2.2 (1 mg/ml) for 10 minutes, then neutralised with 15 μl of 1M Tris-HCL (pH9.1). An aliquot of the Round 1 eluate was removed and titred. The remainder of the eluted phage were amplified by infection of E. coli ER2538 cells for 4.5 hours at 37° C. The cultures were centrifuged for 10 minutes at 10,000 rpm at 4° C. The supernatants were recovered, ⅙ volume PEG/NaCl (20% polyethylene glycol 8000; 2.5M NaCl) added, then incubated overnight at 4° C. The PEG-precipitated phage were centrifuged at 10,000 rpm for 15 minutes at 4° C. The supernatant was removed and the phage pellet resuspended in 200 μl TBS. […] The specificity of peptide-antibody binding was subsequently determined using both phage ELISA and SPOTs techniques.

Assay [3] relates to anti-RhE monoclonal antibody E0001 (HIRO17). Kind of assay: Biopanning of phage-peptide libraries with anti-RhE E0001. The assay is classed as binding, Human. The conditions noted are these: IgG1 antibody.
Description: as §3
(§4) For each target antibody/library combination, a separate well of a 96-well Immulon 4 flat-bottomed ELISA plate (Thermo Labsystems) was coated with 5 μg of antibody in 150 μl ELISA coating buffer (15 mM Na2CO3, 35 mM NaHCO3, pH9.6). Plates were sealed and incubated at 4° C. overnight. Unbound antibody was discarded and 350 μl of blocking buffer (0.1M NaHCO3/3% skimmed milk powder) was added to each well. Plates were sealed and incubated for 1 hour at 4° C. The blocking buffer was removed and the wells were washed six times with 300 μl TBS/0.1% Tween 20. Approximately 2×10^11 plaque forming units (pfu) in 100 μl TBS/0.1% Tween 20 were added to each well and the plates were incubated at room temperature for 1 hour. Wells were washed ten times with 300 μl TBS/0.1% Tween 20. […] The specificity of peptide-antibody binding was subsequently determined using both phage ELISA and SPOTs techniques.

Assay [4] has as its system anti-Fy^a monoclonal antibody (LM487). Kind of assay: Biopanning of phage-peptide libraries with anti-Fy^a LM487. The note with it: three rounds of panning. In kind it is binding, Murine.
Description: as §3, §4

Assay [5] shares this test system. Kind of assay: Phage ELISA (capture ELISA) of phage-peptides on coated anti-Fy^a antibody. The assay is classed as binding, Murine. The note with it: FIG. 3; 19 Fya phage-peptide clones (Fya1-18 & Fya25); OD450 greater than 0.1 considered positive. How it is done:
The ability of the recovered phage-peptides to react with the antibodies used in their selection was confirmed by capture ELISA. A 10 μg/ml stock of appropriate monoclonal antibody was prepared in ELISA coating buffer and 150 μl aliquots were added to wells of an Immulon 4 ELISA plate, and then incubated overnight at 4° C. Unbound antibody was discarded and the wells were blocked with 350 μl of blocking buffer (0.1M NaHCO3/3% skimmed milk powder) for 1 hour at 4° C. The wells were washed three times with 300 μl TBS/0.5% Tween 20 and 100 μl of selected phage culture supernatants were added to appropriate wells for 1 hour at room temperature. Unbound phage were removed and the wells washed six times with 300 μl TBS/0.5% Tween 20. A 1:5000 dilution of horseradish peroxidase (HRP) conjugated anti-M13, secondary antibody was prepared in blocking buffer and 100 μl aliquots added to each well. Following incubation for 1 hour at room temperature the wells were washed six times with 300 μl TBS/0.5% Tween 20. To develop the reactions, a 200 μl aliquot of o-phenylenediamine dihydrochloride (OPD) substrate (Sigma) was added to each well. The absorbance at 450 nm was measured, following incubation at room temperature for 1 hour, by a microplate ELISA reader. An OD450 signal greater than 0.1 was considered positive.
Phage ELISA analysis of 19 “Fy^a” phage-peptide clones (Peptides Fya1-18 & Fya25; see Table 3 for sequence details) confirmed the binding specificity of the LM487 antibody for the Fy^a phage-peptides.

Assay [6] shares this test system. Kind of assay: SPOTs membrane hybridisation with anti-Fy^a antibody. In kind it is binding, Murine. How it is done:
as §1
A membrane was placed in a 50 ml Falcon tube and blocked overnight at 4° C. with gentle agitation in TBS/0.25% Tween 20/5% skimmed milk powder. A 2 μg/ml dilution of the primary (1°) antibody (monoclonal or polyclonal) was prepared in TBS/0.25% Tween20/5% skimmed milk powder before incubation with the membrane for 1 hour at room temperature on a spiral rotor. Following 4 washes, each for 5 minutes with 20 ml of TBS/0.25% Tween20, the membrane was incubated for 1 hour at room temperature with a 1/5000 dilution of the secondary (2°) antibody, prepared in TBS/0.25% Tween20/5% skimmed milk powder. […] Bound antibody was detected by chemiluminescence. […]

Assay [7] concerns anti-RhE monoclonal antibody E0003 (NaTH110-IH4). The assay can be described thus: Biopanning of phage-peptide libraries with anti-RhE E0003. In kind it is binding, Human. The note with it: IgM antibody.
Description: as §3, §4

In assay [8] the test system is anti-RhD monoclonal antibody T10 (LHM76/55). Kind of assay: Biopanning of phage-peptide libraries with anti-RhD T10. The assay is classed as binding, Human. The conditions noted are these: phage-peptide libraries; three rounds of panning.
Description: as §3
For each target antibody/library combination, a separate well of a 96-well Immulon 4 flat-bottomed ELISA plate (Thermo Labsystems) was coated with 5 μg of antibody in 150 μl ELISA coating buffer (15 mM Na2CO3, 35 mM NaHCO3, pH9.6). Plates were sealed and incubated at 4° C. overnight. Unbound antibody was discarded and 350 μl of blocking buffer (0.1M NaHCO3/3% skimmed milk powder) was added to each well. Plates were sealed and incubated for 1 hour at 4° C. The blocking buffer was removed and the wells were washed six times with 300 μl TBS/0.1% Tween 20. Approximately 2×10^11 plaque forming units (pfu) in 100 μl TBS/0.1% Tween 20 were added to each well and the plates were incubated at room temperature for 1 hour. Wells were washed ten times with 300 μl TBS/0.1% Tween 20. Bound phage were eluted by incubation with 100 μl of 0.2M glycine-HCl/BSA, pH2.2 (1 mg/ml) for 10 minutes, then neutralised with 15 μl of 1M Tris-HCL (pH9.1). An aliquot of the Round 1 eluate was removed and titred. The remainder of the eluted phage were amplified by infection of E. coli ER2538 cells for 4.5 hours at 37° C. The cultures were centrifuged for 10 minutes at 10,000 rpm at 4° C. The supernatants were recovered, ⅙ volume PEG/NaCl (20% polyethylene glycol 8000; 2.5M NaCl) added, then incubated overnight at 4° C. The PEG-precipitated phage were centrifuged at 10,000 rpm for 15 minutes at 4° C. The supernatant was removed and the phage pellet resuspended in 200 μl TBS. Two further rounds of panning were undertaken and approximately 2×10^11 pfu of the Round 2 or Round 3 amplified eluates were used as input phage. Round 3 eluates were titrated but not amplified. Individual plaques were amplified and subjected to PCR amplification, prior to DNA sequence analysis. The specificity of peptide-antibody binding was subsequently determined using both phage ELISA and SPOTs techniques.

Assay [9] concerns polyclonal anti-RhD preparation (Human Anti-D Ig). Kind of assay: SPOTs membrane hybridisation with polyclonal anti-RhD. In kind it is binding. The conditions noted are these: FIG. 8; Spots 1-25 = RhD81-105; Spots 26-28 = RhD68, RhD71, RhD79; Spot 29 CPep75 and Spot 30 CPep76 negative controls. The protocol: as §1
as §2, with “minutes). […]” for “minutes).”

“RhE19: RhE peptide mimotope, Table 5 (SFQDALLSRWYS)”: the “SPOTs binding of anti-RhE monoclonal antibody E0002” value in assay [1] is “Specific binding”. For the same substance, the “Selection by biopanning with anti-RhE antibody E0002” value in [2] was “selected”. Besides, the “Selection by biopanning with anti-RhE antibody E0001” value in assay [3] is given as “selected”.

For “Fya20: Fya peptide mimotope, Table 3; contains sequence identical to the Fy^a polymorphism (GIAEDDYGALSW)”, in assay [4], the “Selection by biopanning with anti-Fy^a monoclonal antibody LM487” value is reported as “bound”.

With “Fya14: Fya peptide mimotope, Table 3 (GDWLHW)”, the “Phage ELISA binding of phage-peptide to anti-Fy^a antibody LM487” value (“Phage ELISA binding of phage-peptide” below) in assay [5] is “failed to bind”.

Consider “PDGDYGANLEAAAP [CPep118, 14-mer immunisation peptide used to generate the anti-Fy^a antibody, reference compound]”, for which the “Reciprocal SPOTs hybridisation: binding of anti-Fy^a monoclonal antibody” value in assay [6] (FIG. 5, Spots 1-37 = Fya 1-37, Spots 38-40 = Fya17, Fya25, Fya35, Spot 41 Cpep75, 42 Cpep76, 43 CPep118, 44 Fyb1, membranes hybridised in parallel with both antibodies) is given as “Fy^a-specificity”.

For “RhE18: RhE peptide mimotope, Table 5 (IPEEALRARFKT)”, the “Selection by biopanning with anti-RhE antibody E0003” value in [7] is on record as “selected”. Also, the “SPOTs binding of anti-RhE monoclonal antibody E0002” value in [1] is on record as “Specific binding”. Further, in [2], the “Selection by biopanning with anti-RhE antibody E0002” value is listed as “selected”.

Consider “RhE24: RhE peptide mimotope, Table 5 (GPSYYALITRYLGAA)”, for which the “Selection by biopanning with anti-RhE antibody E0003” value in [7] was “selected”. Further, the “SPOTs binding of anti-RhE monoclonal antibody E0002” value in assay [1] is reported as “Specific binding”. Moreover, the “Selection by biopanning with anti-RhE antibody E0002” value in assay [2] is reported as “selected”.

For the substance “Fya15: Fya peptide mimotope, Table 3; contains sequence identical to the Fy^a polymorphism (SDGDYGA)”, the “Selection by biopanning with anti-Fy^a monoclonal antibody LM487” value in assay [4] is “bound”. Also, the “SPOTs binding of anti-Fy^a antibody LM487 to membrane-synthesised peptide” value in [6] (FIG. 4, 37 peptides Fya1-37 synthesised as SPOTs) is reported as “strong positive signal”.

For the substance “Fya2: Fya peptide mimotope, Table 3 (TNLRLPA)”, the “Phage ELISA binding of phage-peptide” value in [5] is reported as “failed to bind”.

Regarding “RhD71: RhD peptide mimotope, Table 4 (VPWFRAP)”, in [8], the “Selection by biopanning with anti-RhD monoclonal antibody T10” value is given as “identified through biopanning”. In addition, the “SPOTs recognition by polyclonal anti-RhD” value in assay [9] is given as “recognised”.

For the substance “RhD79: RhD peptide mimotope, Table 4 (LPWYRH)”, in [8], the “Selection by biopanning with anti-RhD monoclonal antibody T10” value is listed as “identified through biopanning”. The “SPOTs recognition by polyclonal anti-RhD” value in assay [9] is “recognised”.

As for “Fya18: Fya peptide mimotope, Table 3 (PSPGQI)”, the “Phage ELISA binding of phage-peptide” value in assay [5] is “failed to bind”.

In the case of “RhD68: RhD peptide mimotope, Table 4 (LDTYWYREHFRR)”, the “Selection by biopanning with anti-RhD monoclonal antibody T10” value in assay [8] is “identified through biopanning”. The “SPOTs recognition by polyclonal anti-RhD” value in assay [9] is “recognised”.
